The values that follow come from patent US5498405A, “Indole alkaloids useful as UV protective and anti-inflammatory agents” (The Regents of the University of California, priority 1995, dated 1996).

The test system of series [1] is myeloperoxidase (MPO). The series is described as follows: Myeloperoxidase (MPO) enzyme assay in ear biopsies from treated mice. Format: in vivo, mouse. The settings on record: pooled ear bores. The text has this:
Myeloperoxidase (MPO) Enzyme Assay
The neutrophil-specific marker released from primary granules, myeloperoxidase (MPO), in ear biopsies from treated and untreated mouse ears was extracted and quantitated according to a modified method of Bradley, P. O., Priebat, D. A., Christensen, R. D. and Rothstein, G., "Measurement of cutaneous inflammation estimation of neutrophil content with an enzyme marker," J. Invest Dermatology 78: 206-209, 1982. This enzyme is indicative of the extravasation of pro-inflammation neutrophils from blood into the skin. Ear bores from each treatment group from mouse ear edema assays were pooled and homogenized in 80 mM sodium phosphate buffer (pH 5.4) containing 0.5% hexadecyltrimethylammonium bromide in a siliconized glass test tube for 1 min. at 0° C. using a Brinkman Polytron. The mixtures were centrifuged at 10,000×g at 4° C. for 30 min. Samples (10 μl) from each group were then assayed in a 96-well microtiter plate. The assay was initiated by adding 250 μl of o-dianisi-dine/phosphate reagent (0.28 mg of dianisidine added to 1 ml of 50 mM sodium phosphate containing […]) to each well. After a 30 minutes incubation of 37° C., the plates were read at 450 nm on a Molecular Devices microplate reader. Diluted control biopsies were utilized to develop a standard curve. Optical density values from drug-treated groups were compared to control groups to determine % of control values of enzyme activity.

Series [2] relates to mouse ear edema (Phorbol 12-myristate 13-acetate, PMA). The series is described as follows: Inhibition of PMA-induced inflammation (edema) of the mouse ear. Format: in vivo. The settings on record: PMA 2 μg/ear, 3 hours, 20 minutes. The procedure:
Inhibition of Inflammation (Edema) of the Mouse Ear
Compounds 1 and 1R were topically applied in acetone to the inside pinnae of the ears of mice in a solution containing the edema-causing irritant, Phorbol 12-myristate 13-acetate (PMA). […] After 3 hours, 20 minutes incubation, the mice were sacrificed, the ears removed and bores taken and weighed. Edema was measured by subtracting the weight of the right ear (acetone control) from the weight of the left ear (treated). Results are recorded as % decrease (inhibition)or % increase (potentiation) in edema relative to the PMA control group edema.

Series [3] is described as follows: Solubility. Format: physicochemical. Conditions: after mild reduction (e.g., ascorbic acid).

As to `O=C1C(=Cc2ccc(O)cc2)c2[nH]c3ccccc3c2C1=C1C(=O)C(=Cc2ccc(O)cc2)C2=Nc3ccccc3C21` (centres unmarked) [Compound 1R], the “MPO Enzyme Activity, % of Control” value in series [1] (dose 1 ug/ear) is on record as 81%; in series [1] (dose 5 ug/ear), 82%; in series [1] (dose 10 ug/ear), 32%; in series [1] (dose 100 ug/ear) it was 10%. The “Dose Response Inhibition of Mouse Ear Edema” value in series [2] (topical dose 1 ug/ear) came out at 22%; in series [2] (topical dose 5 ug/ear), 17%; in series [2] (topical dose 10 ug/ear) it was 49%; in series [2] (topical dose 50 ug/ear), 94%; in series [2] (topical dose 100 ug/ear), 95%. Also, the “Inhibition of Mouse Ear Edema” value in series [2] (topical dose 50 ug/ml (so in the source)) is 94%. Besides, in series [3], the “Solubility properties relative to Compound 1” value is recorded as “slightly improved solubility properties”.
